Source: US20260015358A1, “BICYCLIC DERIVATIVES, COMPOSITIONS AND USES THEREOF” (Danatlas Pharmaceuticals Co., Ltd., priority 2023, published 2026)

Tests used:
[1] = molecular target: T1, WRN [UniPro: Q14191 (WRN_HUMAN), N500-C946] (Homo sapiens (Human), UniProt Q14191); experiment: WRN unwinding assay (FORKF DNA, fluorescence); assay type: biochemical; settings: Table 14
[2] = molecular target: T1, WRN [UniPro: Q14191 (WRN_HUMAN), N500-C946]; experiment: WRN ATPase assay (ADP-Glo); assay type: biochemical; settings: WRN enzymatic activity assay

T1 sequence (Q14191 500-946): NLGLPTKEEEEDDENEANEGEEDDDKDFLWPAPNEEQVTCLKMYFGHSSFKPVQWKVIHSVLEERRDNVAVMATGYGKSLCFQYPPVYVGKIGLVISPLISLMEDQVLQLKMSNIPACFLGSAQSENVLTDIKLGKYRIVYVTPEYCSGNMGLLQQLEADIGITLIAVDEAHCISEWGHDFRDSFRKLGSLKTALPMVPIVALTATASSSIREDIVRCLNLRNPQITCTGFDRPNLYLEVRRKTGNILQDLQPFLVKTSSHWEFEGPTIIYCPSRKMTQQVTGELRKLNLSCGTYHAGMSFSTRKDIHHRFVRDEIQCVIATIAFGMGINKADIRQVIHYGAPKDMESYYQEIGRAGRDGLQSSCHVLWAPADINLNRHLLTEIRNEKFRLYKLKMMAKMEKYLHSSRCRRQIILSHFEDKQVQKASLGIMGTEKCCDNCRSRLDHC

Compound | IC50 [1] [µM] | IC50 [2] [µM]
CCc1c(N2CCN(C(=O)c3nnc(Cl)cc3O)CC2)c(=O)n2nc(C3=CCOCC3)nc2n1CC(=O)Nc1ccc(C(F)(F)F)cc1Cl [Example 83, N-(2-Chloro-4-(trifluoromethyl)phenyl)-2-(6-(4-(6-chloro-4-hydroxypyridazine-3-carbonyl)piperazin-1-yl)-2-(3,6-dihydro-2H-pyran-4-yl)-5-ethyl-7-oxo-[1,2,4]triazolo[1,5-a]pyrimidin-4(7H)-yl)acetamide] | < 0.1 | < 0.1
CCc1c(N2CCN(C(=O)CNC(=O)NCc3ccccc3F)CC2)c(=O)n2nc(C3=CCOCC3)nc2n1CC(=O)Nc1ccc(C(F)(F)F)cc1Cl [Example 191, N-(2-Chloro-4-(trifluoromethyl)phenyl)-2-(2-(3,6-dihydro-2H-pyran-4-yl)-5-ethyl-6-(4-(((2-fluorobenzyl)carbamoyl)glycyl)piperazin-1-yl)-7-oxo-[1,2,4]triazolo[1,5-a]pyrimidin-4(7H)-yl)acetamide] | < 0.1 | < 0.1
CCc1c(N2CCN(C(=O)CNC(=O)c3cc(N)ccc3F)CC2)c(=O)n2nc(C3=CCOCC3)nc2n1CC(=O)Nc1ccc(C(F)(F)F)cc1Cl [Example 372, 5-Amino-N-(2-(4-(4-(2-((2-chloro-4-(trifluoromethyl)phenyl)amino)-2-oxoethyl)-2-(3,6-dihydro-2H-pyran-4-yl)-5-ethyl-7-oxo-4,7-dihydro-[1,2,4]triazolo[1,5-a]pyrimidin-6-yl)piperazin-1-yl)-2-oxoethyl)-2-fluorobenzamide] | < 0.1 | < 0.1
CCc1c(N2CCN(C(=O)CNC(=O)N3Cc4ccccc4C3)CC2)c(=O)n2nc(C3=CCOCC3)nc2n1CC(=O)Nc1ccc(C(F)(F)F)cc1Cl [Example 185, N-(2-(4-(4-(2-((2-Chloro-4-(trifluoromethyl)phenyl)amino)-2-oxoethyl)-2-(3,6-dihydro-2H-pyran-4-yl)-5-ethyl-7-oxo-4,7-dihydro-[1,2,4]triazolo[1,5-a]pyrimidin-6-yl)piperazin-1-yl)-2-oxoethyl)isoindoline-2-carboxamide] | < 0.1 | < 0.1
CCc1c(N2CCN(S(=O)(=O)NC(=O)c3ccccc3)CC2)c(=O)n2nc(C3=CCOCC3)nc2n1CC(=O)Nc1ccc(C(F)(F)F)cc1Cl [Example 194, N-((4-(4-(2-((2-Chloro-4-(trifluoromethyl)phenyl)amino)-2-oxoethyl)-2-(3,6-dihydro-2H-pyran-4-yl)-5-ethyl-7-oxo-4,7-dihydro-[1,2,4]triazolo[1,5-a]pyrimidin-6-yl)piperazin-1-yl)sulfonyl)benzamide] | < 0.1 | < 0.1
CCc1c(N2CCN(C(=O)C(=O)N3CCOCC3)CC2)c(=O)n2nc(C3=CCOCC3)nc2n1CC(=O)Nc1ccc(C(F)(F)F)cc1Cl [Example 356, N-(2-Chloro-4-(trifluoromethyl)phenyl)-2-(2-(3,6-dihydro-2H-pyran-4-yl)-5-ethyl-6-(4-(2-morpholino-2-oxoacetyl)piperazin-1-yl)-7-oxo-[1,2,4]triazolo[1,5-a]pyrimidin-4(7H)-yl)acetamide] | > 1 | > 1
CCc1c(N2CCN(C(=O)C(=O)Nc3nc(C)cs3)CC2)c(=O)n2nc(C3=CCOCC3)nc2n1CC(=O)Nc1ccc(C(F)(F)F)cc1F [Example 350, 2-(4-(2-(3,6-Dihydro-2H-pyran-4-yl)-5-ethyl-4-(2-((2-fluoro-4-(trifluoromethyl)phenyl)amino)-2-oxoethyl)-7-oxo-4,7-dihydro-[1,2,4]triazolo[1,5-a]pyrimidin-6-yl)piperazin-1-yl)-N-(4-methylthiazol-2-yl)-2-oxoacetamide] | < 0.1 | < 0.1
CCc1c(N2CCN(C(=O)CNC(=O)c3cncs3)CC2)c(=O)n2nc(C3=CCOCC3)nc2n1CC(=O)Nc1ccc(C(F)(F)F)cc1Cl [Example 268, N-(2-(4-(4-(2-((2-Chloro-4-(trifluoromethyl)phenyl)amino)-2-oxoethyl)-2-(3,6-dihydro-2H-pyran-4-yl)-5-ethyl-7-oxo-4,7-dihydro-[1,2,4]triazolo[1,5-a]pyrimidin-6-yl)piperazin-1-yl)-2-oxoethyl)thiazole-5-carboxamide] | < 0.1 | < 0.1
CCc1c(N2CCN(C(=O)NS(=O)(=O)CC)CC2)c(=O)n2nc(C3=CCOCC3)nc2n1CC(=O)Nc1ccc(C(F)(F)F)cc1Cl [Example 25, 4-(4-(2-((2-Chloro-4-(trifluoromethyl)phenyl)amino)-2-oxoethyl)-2-(3,6-dihydro-2H-pyran-4-yl)-5-ethyl-7-oxo-4,7-dihydro-[1,2,4]triazolo[1,5-a]pyrimidin-6-yl)-N-(ethylsulfonyl)piperazine-1-carboxamide] | < 0.1 | < 0.1
CCc1c(N2CCN(C(=O)CNC(=O)c3cc(O)cc(F)c3)CC2)c(=O)n2nc(C3=CCOCC3)nc2n1CC(=O)Nc1ccc(C(F)(F)F)cc1Cl [Example 291, N-(2-(4-(4-(2-((2-Chloro-4-(trifluoromethyl)phenyl)amino)-2-oxoethyl)-2-(3,6-dihydro-2H-pyran-4-yl)-5-ethyl-7-oxo-4,7-dihydro-[1,2,4]triazolo[1,5-a]pyrimidin-6-yl)piperazin-1-yl)-2-oxoethyl)-3-fluoro-5-hydroxybenzamide] | < 0.1 | < 0.1
CCCC(=O)NCC(=O)N1CCN(c2c(CC)n(CC(=O)Nc3ccc(C(F)(F)F)cc3Cl)c3nc(C4=CCOCC4)nn3c2=O)CC1 [Example 94, N-(2-(4-(4-(2-((2-Chloro-4-(trifluoromethyl)phenyl)amino)-2-oxoethyl)-2-(3,6-dihydro-2H-pyran-4-yl)-5-ethyl-7-oxo-4,7-dihydro-[1,2,4]triazolo[1,5-a]pyrimidin-6-yl)piperazin-1-yl)-2-oxoethyl)butyramide] | < 0.1 | < 0.1
CCc1c(N2CCN(C(=O)C(=O)Nc3nccs3)CC2)c(=O)n2nc(C3=CCOCC3)nc2n1CC(=O)Nc1ccc(C(F)(F)F)cc1F [Example 227, 2-(4-(2-(3,6-Dihydro-2H-pyran-4-yl)-5-ethyl-4-(2-((2-fluoro-4-(trifluoromethyl)phenyl)amino)-2-oxoethyl)-7-oxo-4,7-dihydro-[1,2,4]triazolo[1,5-a]pyrimidin-6-yl)piperazin-1-yl)-2-oxo-N-(thiazol-2-yl)acetamide] | < 0.1 | < 0.1
CCc1c(N2CCN(C(=O)CNC(=O)c3ccc(NC)cc3F)CC2)c(=O)n2nc(C3=CCOCC3)nc2n1CC(=O)Nc1ccc(C(F)(F)F)cc1Cl [Example 380, N-(2-(4-(4-(2-((2-Chloro-4-(trifluoromethyl)phenyl)amino)-2-oxoethyl)-2-(3,6-dihydro-2H-pyran-4-yl)-5-ethyl-7-oxo-4,7-dihydro-[1,2,4]triazolo[1,5-a]pyrimidin-6-yl)piperazin-1-yl)-2-oxoethyl)-2-fluoro-4-(methylamino)benzamide] | 0.1 to 1 | 0.1 to 1
CCc1c(N2CCN(C(=O)c3cnc4sc(Br)cc4c3O)CC2)c(=O)n2nc(C3=CCOCC3)nc2n1CC(=O)Nc1ccc(C(F)(F)F)cc1F [Example 297, 2-(6-(4-(2-Bromo-4-hydroxythieno[2,3-b]pyridine-5-carbonyl)piperazin-1-yl)-2-(3,6-dihydro-2H-pyran-4-yl)-5-ethyl-7-oxo-[1,2,4]triazolo[1,5-a]pyrimidin-4(7H)-yl)-N-(2-fluoro-4-(trifluoromethyl)phenyl)acetamide] | < 0.1 | < 0.1
CCc1c(N2CCN(C(=O)CNC(=O)c3cc(F)ccc3F)CC2)c(=O)n2nc(C3=CCOCC3)nc2n1CC(=O)Nc1ccc(C(F)(F)F)cc1Cl [Example 118, N-(2-(4-(4-(2-((2-Chloro-4-(trifluoromethyl)phenyl)amino)-2-oxoethyl)-2-(3,6-dihydro-2H-pyran-4-yl)-5-ethyl-7-oxo-4,7-dihydro-[1,2,4]triazolo[1,5-a]pyrimidin-6-yl)piperazin-1-yl)-2-oxoethyl)-2,5-difluorobenzamide] | < 0.1 | < 0.1
[2H]C([2H])(NC(=O)c1ccccc1F)C(=O)N1CCN(c2c(CC)n(C([2H])([2H])C(=O)Nc3ccc(C(F)(F)F)cc3F)c3nc(C4=CCOCC4)nn3c2=O)CC1 [Example 225, N-(2-(4-(2-(3,6-Dihydro-2H-pyran-4-yl)-5-ethyl-4-(2-((2-fluoro-4-(trifluoromethyl)phenyl)amino)-2-oxoethyl-1,1-d2)-7-oxo-4,7-dihydro-[1,2,4]triazolo[1,5-a]pyrimidin-6-yl)piperazin-1-yl)-2-oxoethyl-1,1-d2)-2-fluorobenzamide] | < 0.1 | < 0.1
CCc1c(N2CCN(C(=O)c3cn(C)c(=O)[nH]c3=O)CC2)c(=O)n2nc(C3=CCOCC3)nc2n1CC(=O)Nc1ccc(C(F)(F)F)cc1Cl [Example 59, N-(2-Chloro-4-(trifluoromethyl)phenyl)-2-(2-(3,6-dihydro-2H-pyran-4-yl)-5-ethyl-6-(4-(1-methyl-2,4-dioxo-1,2,3,4-tetrahydropyrimidine-5-carbonyl)piperazin-1-y1)-7-oxo-[1,2,4]triazolo[1,5-a]pyrimidin-4(7H)-yl)acetamide] | < 0.1 | 0.1 to 1
CCc1c(N2CCN(C(=O)CNC(=O)NCc3ccccc3)CC2)c(=O)n2nc(C3=CCOCC3)nc2n1CC(=O)Nc1ccc(C(F)(F)F)cc1Cl [Example 183, 2-(6-(4-((Benzylcarbamoyl)glycyl)piperazin-1-yl)-2-(3,6-dihydro-2H-pyran-4-yl)-5-ethyl-7-oxo-[1,2,4]triazolo[1,5-a]pyrimidin-4(7H)-yl)-N-(2-chloro-4-(trifluoromethyl)phenyl)acetamide] | < 0.1 | < 0.1
CCc1c(N2CCN(C(=O)CNC(=O)c3ccccc3)CC2)c(=O)n2nc(C(C)(C)C)nc2n1CC(=O)Nc1ccc(C(F)(F)F)cc1Cl [Example 237, N-(2-(4-(2-(Tert-butyl)-4-(2-((2-chloro-4-(trifluoromethyl)phenyl)amino)-2-oxoethyl)-5-ethyl-7-oxo-4,7-dihydro-[1,2,4]triazolo[1,5-a]pyrimidin-6-yl)piperazin-1-yl)-2-oxoethyl)benzamide] | 0.1 to 1 | 0.1 to 1
